Experimental findings from PubChem BioAssay (NCI) are described below.

Some test systems named below: 786-0 renal; A549 NSCLC; DMS 273 small cell lung; KM12 colon; MOLT-4 leukemia; NCI-H23 lung; OVCAR-8 ovarian; SK-MEL-2 melanoma; SW-620 colon; A498 renal.
Holding throughout (test): inhibition of tumour cell growth, NCI panel, 48 h

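Where inhibition never reached the appropriate level, the endpoint shown equals the highest concentration tested. Otherwise, values were interpolated linearly from a five-concentration, 48-hour dose response in 96-well plates. Abbreviation: GI50, concentration required for 50% inhibition of growth. Definition used: TGI = concentration required for complete inhibition of growth.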

In the case of `CC(C)c1cc2c(O)c(c1)Cc1cc(C(C)C)cc(c1O)Cc1cc(C(C)C)cc(c1O)Cc1cc(C(C)C)cc(c1O)Cc1cc(C(C)C)cc(c1O)Cc1cc(C(C)C)cc(c1O)C2`, the TGI with 786-0 renal, in the test with A549 NSCLC, in the test with DMS 273 small cell lung, in the test on KM12 colon, with MOLT-4 leukemia and in the test with NCI-H23 lung was more than 100 µM in each case. In addition, the TGI in the test with OVCAR-8 ovarian, in the test on SK-MEL-2 melanoma and in the test on SW-620 colon was more than 100 µM in each case.

`Cc1ccc(NC(=O)NC23CC4CC(CC(F)(C4)C2)C3)cc1`: the TGI in the test with 786-0 renal, in the test with A498 renal, in the test with A549 NSCLC, in the test with DMS 273 small cell lung, with KM12 colon and in the test with MOLT-4 leukemia was more than 100 µM each time. Further, the TGI in the test with NCI-H23 lung, in the test with OVCAR-8 ovarian, in the test with SK-MEL-2 melanoma and in the test with SW-620 colon was more than 100 µM throughout.

Turning to `C[Si](C)(C)[C@@]1([Se]c2ccccc2)CC[C@@H]1C(=O)c1ccccc1`, the TGI in the test on 786-0 renal is more than 100 µM; in the test with A498 renal, more than 100 µM; with A549 NSCLC, more than 100 µM; in the test on DMS 273 small cell lung, more than 100 µM; in the test on KM12 colon, more than 100 µM; in the test on MOLT-4 leukemia it was 75.1 µM. The TGI in the test with NCI-H23 lung, in the test with OVCAR-8 ovarian, in the test with SK-MEL-2 melanoma and with SW-620 colon was more than 100 µM in each case.

Take `O=C(O)c1oc2ccc([N+](=O)[O-])c3c2c1CCC3`: the TGI with 786-0 renal, in the test on A549 NSCLC, with DMS 273 small cell lung, in the test on KM12 colon, with NCI-H23 lung and in the test with OVCAR-8 ovarian was more than 100 µM throughout. In addition, the TGI in the test on SK-MEL-2 melanoma and in the test on SW-620 colon was more than 100 µM throughout.

In the case of `S=C1OC2C3C4CC5C3C(O1)C1C5C4C21` (centres undefined), the TGI in the test with 786-0 renal, in the test on A498 renal, in the test on A549 NSCLC, in the test on DMS 273 small cell lung, in the test on KM12 colon and in the test with MOLT-4 leukemia was more than 100 µM in each case. In addition, the TGI with OVCAR-8 ovarian and in the test on SW-620 colon was more than 100 µM each time.

As for `CC(=O)Nc1[nH]c(=O)[nH]c(=O)c1N(C(C)=O)C(C)=O`, the TGI with 786-0 renal, in the test with A498 renal, in the test on A549 NSCLC, with DMS 273 small cell lung, in the test with KM12 colon and in the test on MOLT-4 leukemia was more than 100 µM each time. The TGI in the test on OVCAR-8 ovarian, with SK-MEL-2 melanoma and in the test on SW-620 colon was more than 100 µM throughout.

`C(=C1/CCCCC([n+]2ccccc2)=N1)/c1ccccc1`: the TGI with 786-0 renal, in the test with A549 NSCLC, in the test with DMS 273 small cell lung, with MOLT-4 leukemia, in the test with NCI-H23 lung and in the test with OVCAR-8 ovarian was more than 100 µM in each case. Also, the TGI with SK-MEL-2 melanoma and with SW-620 colon was more than 100 µM throughout.

Consider `CC1=NN(C(=O)Cc2ccccc2)C(=O)/C1=C\c1cccc(O)c1`, for which the TGI in the test with 786-0 renal, in the test on A549 NSCLC, in the test with DMS 273 small cell lung, in the test with KM12 colon, in the test on MOLT-4 leukemia and in the test on NCI-H23 lung was more than 100 µM each time. The TGI in the test with OVCAR-8 ovarian, in the test with SK-MEL-2 melanoma and with SW-620 colon was more than 100 µM in each case.

For the compound `Clc1cccc(C2SCc3nc4ccccc4n32)c1Cl` (centres undefined), the TGI in the test with 786-0 renal turned out to be 32.8 µM; with A498 renal it was 29.2 µM; in the test on A549 NSCLC, 41.9 µM; in the test with DMS 273 small cell lung it was 32.1 µM; in the test with MOLT-4 leukemia, 41.9 µM; in the test on NCI-H23 lung, 32.1 µM. For the same compound, the TGI was found to be 37 µM in the test with OVCAR-8 ovarian, 32.2 µM in the test on SK-MEL-2 melanoma and 30.8 µM in the test with SW-620 colon.

`CCCC/C(C)=N/NC(N)=S`: the TGI with 786-0 renal, in the test with A498 renal, in the test on A549 NSCLC, with KM12 colon, in the test on MOLT-4 leukemia and in the test with NCI-H23 lung was more than 100 µM each time. Also, the TGI in the test with OVCAR-8 ovarian, in the test on SK-MEL-2 melanoma and in the test with SW-620 colon was more than 100 µM each time.

Consider `N#CCc1nc2c(s1)C(=O)c1ccccc1C2=O`, for which the TGI amounted to 30.1 µM in the test with 786-0 renal; 59.1 µM with A498 renal; 29.9 µM in the test with DMS 273 small cell lung; 36 µM in the test on KM12 colon; 3.48 µM with MOLT-4 leukemia; 36.4 µM in the test with NCI-H23 lung. Moreover, the TGI in the test on OVCAR-8 ovarian was 22.6 µM; with SK-MEL-2 melanoma, 35.6 µM; in the test with SW-620 colon it was 34.8 µM.

Turning to `Cc1cc(C#Cc2ccccc2)ccc1-n1c(/C=C/c2ccc(O)cc2)nc2ccccc2c1=O`, the GI50 with 786-0 renal was 3.65 µM; in the test on A498 renal it was 1.56 µM; in the test on A549 NSCLC it was 3.14 µM; with KM12 colon, 3.24 µM; in the test with MOLT-4 leukemia, 2.36 µM; in the test on NCI-H23 lung it was 3.62 µM. In addition, the GI50 is 3.98 µM in the test with OVCAR-8 ovarian, 1.93 µM in the test on SK-MEL-2 melanoma and 4.08 µM in the test on SW-620 colon. In addition, the TGI was 28.7 µM with 786-0 renal; 7.71 µM with A498 renal; more than 100 µM with A549 NSCLC; 12.6 µM in the test with KM12 colon; 8.33 µM in the test with MOLT-4 leukemia; more than 100 µM with NCI-H23 lung. Besides, the results for the TGI with OVCAR-8 ovarian, in the test on SK-MEL-2 melanoma and with SW-620 colon were more than 100 µM, 5.76 µM and more than 100 µM, respectively.

`C=C(C)[C@@H]1CC[C@]2(C#N)CC[C@]3(C)[C@H](CC[C@@H]4[C@@]5(C)CCCNC(C)(C)[C@@H]5CC[C@]43C)[C@@H]12`: the GI50 is 1.69 µM with 786-0 renal; 10.1 µM in the test on A498 renal; 1.94 µM in the test on A549 NSCLC; 1.66 µM with KM12 colon; 2.14 µM with MOLT-4 leukemia; 3.32 µM with NCI-H23 lung. In addition, the values for the GI50 with OVCAR-8 ovarian, with SK-MEL-2 melanoma and with SW-620 colon were 1.84 µM, 2.1 µM and 1.77 µM, respectively. Besides, the TGI in the test with 786-0 renal amounted to 3.07 µM; with A498 renal it was 23 µM; with A549 NSCLC, 3.77 µM; in the test on KM12 colon, 3.23 µM; in the test with MOLT-4 leukemia, 5.57 µM; with NCI-H23 lung, 10.9 µM. For the same compound, the TGI in the test with OVCAR-8 ovarian was found to be 3.38 µM; in the test on SK-MEL-2 melanoma, 3.94 µM; in the test on SW-620 colon, 3.42 µM.
